Patent US12486268B2 (TRANSNEURAL THERAPEUTICS, INC., priority 2022, dated 2025)
Structures can show the parent of a compound that is named as a salt.

Target: T1, human serotonin 2A receptors (5-HT2AR) (Homo sapiens, UniProt P28223)
T1 construct: expressed in transfected cells; host or cells: HEK 293 cells
Assay: IP1 accumulation assay (HTRF)
Assay type: cell-based
Set-up: key to h5-HT2A EC50: A=<100; B=100 to 1000; C=>1000 to 10000; D=>10000; E=inactive
Details: HEK 293 cells expressing human 5-HT2AR; for EC50 / h5-HT2A EC50: IP1 production (proxy for Gq activation); for EC50: read-out: h5-HT2A EC50; for Emax: HEK293, IP1 production, relative to 5-HT, read-out: h5-HT2A Emax
Experimental: The functional activity of disclosed compounds is measured using an IP1 (inositol monophosphate) accumulation assay. The effects of disclosed compounds on IP1 production (a proxy for Gq activation) was measured in HEK 293 cells expressing human serotonin 2A receptors (5-HT2AR) using a Homogeneous Time Resolved Fluorescence (HTRF) assay. Standard protocols are followed. Briefly, a cell suspension and test compound/s is incubated in a standard buffer. Following incubation, the cells are lysed, and the fluorescence acceptor and donor are added. After incubation the fluorescence transfer is measured, and data is analyzed using GraphPad Prism to generate concentration response curves.

T1 sequence (P28223 whole entry): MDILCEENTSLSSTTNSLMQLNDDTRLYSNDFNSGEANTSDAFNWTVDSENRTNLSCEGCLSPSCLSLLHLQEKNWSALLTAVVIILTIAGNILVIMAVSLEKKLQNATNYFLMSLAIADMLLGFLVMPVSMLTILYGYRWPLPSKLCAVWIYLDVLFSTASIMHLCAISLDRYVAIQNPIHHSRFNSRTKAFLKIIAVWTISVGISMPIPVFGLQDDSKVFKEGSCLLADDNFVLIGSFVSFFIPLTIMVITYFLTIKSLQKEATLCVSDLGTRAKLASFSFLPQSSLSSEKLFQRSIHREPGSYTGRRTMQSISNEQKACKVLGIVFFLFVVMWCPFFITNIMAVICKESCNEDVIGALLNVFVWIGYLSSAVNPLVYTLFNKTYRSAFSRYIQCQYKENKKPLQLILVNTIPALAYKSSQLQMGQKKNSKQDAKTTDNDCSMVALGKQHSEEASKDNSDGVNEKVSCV

| Structure (SMILES) | EC50 | Emax | h5-HT2A EC50 |
| --- | --- | --- | --- |
| N#CC1C=C(c2c[nH]c3ncccc23)CNC1 (stereo not drawn) [Compound 132, 5-(1H-pyrrolo[2,3-b]pyridin-3-yl)-1,2,3,6-tetrahydropyridine-3-carbonitrile] | > 10 µM | – | – |
| C1=C(c2c[nH]c3ncccc23)CNCC12CCC2 [Compound 145, 3-(6-azaspiro[3.5]non-8-en-8-yl)-1H-pyrrolo[2,3-b]pyridine] | 1 to 10 µM | < 50% | – |
| CC1(C)NCCC=C1c1c[nH]c2ncccc12 [Compound 149, 3-(2,2-dimethyl-1,2,5,6-tetrahydropyridin-3-yl)-1H-pyrrolo[2,3-b]pyridine] | – | < 50% | E |
| CC1C=C(c2c[nH]c3ncccc23)CN(CC(F)(F)C(F)(F)F)C1 (single isomer, unassigned) [105 Isomer 2] | – | < 50% | E |
| CCN1CC(c2c[nH]c3ncccc23)=CC2(CC2)C1 [Compound 144, 3-(5-ethyl-5-azaspiro[2.5]oct-7-en-7-yl)-1H-pyrrolo[2,3-b]pyridine] | 1 to 10 µM | 75 to 90% | – |
| CN1CC(c2c[nH]c3ncccc23)=CC(C(F)(F)F)C1 (stereo not drawn) [Compound 102, 3-(1-methyl-5-(trifluoromethyl)-1,2,5,6-tetrahydropyridin-3-yl)-1H-pyrrolo[2,3-b]pyridine] | > 10 µM | – | – |
| CN1C2CC=C(c3c[nH]c4ncccc34)C1CC2 (stereo not drawn) [Compound 141, 3-(8-methyl-8-azabicyclo[3.2.1]oct-2-en-2-yl)-1H-pyrrolo[2,3-b]pyridine] | > 10 µM | – | – |
| C1=C(c2c[nH]c3ncccc23)C2CC1CN2 (stereo not drawn) [Compound 134] | – | < 50% | E |
| CC1(C)CC=C(c2c[nH]c3ncccc23)CN1 [Compound 148, 3-(6,6-dimethyl-1,2,5,6-tetrahydropyridin-3-yl)-1H-pyrrolo[2,3-b]pyridine hydrochloride] | – | < 50% | E |
| CN1CC(c2c[nH]c3ncccc23)=CC(C)(C)C1 [Compound 108, 3-(1,5,5-trimethyl-1,2,5,6-tetrahydropyridin-3-yl)-1H-pyrrolo[2,3-b]pyridine hydrochloride] | > 10 µM | – | – |
| C1=C(c2c[nH]c3ncccc23)C2(CC2)NCC1 [Compound 147, 3-(4-azaspiro[2.5]oct-7-en-8-yl)-1H-pyrrolo[2,3-b]pyridine hydrochloride] | 1 to 10 µM | > 90% | – |
| CC1C=C(c2c[nH]c3ncccc23)CN(CC(F)(F)C(F)(F)F)C1 (single isomer, unassigned) [105 Isomer 1] | – | – | E |
| FC(F)(F)C1C=C(c2c[nH]c3ncccc23)CNC1 (stereo not drawn) [Compound 101, 3-(5-(trifluoromethyl)-1,2,5,6-tetrahydropyridin-3-yl)-1H-pyrrolo[2,3-b]pyridine] | 1 to 10 µM | 75 to 90% | – |
| CC1C=C(c2c[nH]c3ncccc23)CN(CC(C)(F)F)C1 (single isomer, unassigned) [103 Isomer 2] | – | – | E |
| C1=C(c2nsc3ccccc23)CNCC1 [Compound 160, 3-(1,2,5,6-tetrahydropyridin-3-yl)benzo[d]isothiazole] | < 0.1 µM | > 90% | – |
| CN1CC(c2c[nH]c3ncccc23)=CC2(CCC2)C1 [Compound 146, 3-(6-methyl-6-azaspiro[3.5]non-8-en-8-yl)-1H-pyrrolo[2,3-b]pyridine dihydrochloride] | 0.1 to 1 µM | 50 to 75% | – |
| CN1CCC2CC2(c2c[nH]c3ncccc23)C1 (stereo not drawn) [Compound 106, 3-(3-methyl-3-azabicyclo[4.1.0]heptan-1-yl)-1H-pyrrolo[2,3-b]pyridine] | > 10 µM | – | – |
| CC1C=C(c2c[nH]c3ncccc23)CN(CC(C)(F)F)C1 (single isomer, unassigned) [103 Isomer 1] | – | < 50% | E |
| CC1(C)C=C(c2c[nH]c3ncccc23)CNC1 [Compound 107, 3-(5,5-dimethyl-1,2,5,6-tetrahydropyridin-3-yl)-1H-pyrrolo[2,3-b]pyridine hydrochloride] | > 10 µM | – | – |
